Test results: patent publication US8846698B2, “Pyrrolo[2,3-d]pyrimidine tropomysin-related kinase inhibitors” (Pfizer Limited, priority 2011, dated 2014)

These molecules were tested against TRKA (Homo sapiens (Human), UniProt P04629) (assay: Isolated TRK enzyme assay (HTRF KinEASE-TK), TRKA). Conditions: read-out: Trka enzyme (IC50).
Assay type: biochemical

TRKA, sequence (P04629 441-796): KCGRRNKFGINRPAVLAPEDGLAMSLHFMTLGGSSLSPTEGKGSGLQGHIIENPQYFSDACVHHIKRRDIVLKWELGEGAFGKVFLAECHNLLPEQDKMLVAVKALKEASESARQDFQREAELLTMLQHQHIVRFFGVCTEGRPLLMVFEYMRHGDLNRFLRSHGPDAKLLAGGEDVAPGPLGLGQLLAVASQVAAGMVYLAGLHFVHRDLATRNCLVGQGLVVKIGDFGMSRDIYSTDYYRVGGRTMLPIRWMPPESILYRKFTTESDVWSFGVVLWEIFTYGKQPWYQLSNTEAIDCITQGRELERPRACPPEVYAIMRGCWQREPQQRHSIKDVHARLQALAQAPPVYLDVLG

SMILES | IC50 [nM]
CC(C)n1cc(C(=O)c2cncc(NC(=O)c3cn(C)nc3C(F)(F)F)c2)c2cncnc21 [Example 405, 1-Methyl-3-trifluoromethyl-1H-pyrazole-4-carboxylic acid [5-(7-isopropyl-7H-pyrrolo[2,3-d]pyrimidine-5-carbonyl)-pyridin-3-yl]-amide] | 1630
CC(C)n1cc(C(=O)c2cncc(NC(=O)c3ccn4cncc4c3)c2)c2cncnc21 [Example 406, Imidazo[1,5-a]pyridine-7-carboxylicacid [5-(7-isopropyl-7H-pyrrolo[2,3-d]pyrimidine-5-carbonyl)-pyridin-3-yl]-amide] | 2640
CC(C)n1cc(C(=O)c2cncc(NC(=O)c3ccnc4[nH]ccc34)c2)c2cncnc21 [Example 407, 1H-Pyrrolo[2,3-b]pyridine-4-carboxylic acid [5-(7-isopropyl-7H-pyrrolo[2,3-d]pyrimidine-5-carbonyl)-pyridin-3-yl]-amide] | 2600
CCc1cc(C(=O)Nc2cncc(C(=O)c3cn(C(C)C)c4ncncc34)c2)on1 [Example 408, 3-Ethyl-isoxazole-5-carboxylic acid[5-(7-isopropyl-7H-pyrrolo[2,3-d]pyrimidine-5-carbonyl)-pyridin-3-yl]-amide] | 654
CC(C)n1cc(C(=O)c2cncc(NC(=O)c3cncnc3)c2)c2cncnc21 [Example 410, Pyrimidine-5-carboxylic acid [5-(7-isopropyl-7H-pyrrolo[2,3-d]pyrimidine-5-carbonyl)-pyridin-3-yl]-amide] | 9800
Cc1n[nH]cc1C(=O)Nc1cncc(C(=O)c2cn(C(C)C)c3ncncc23)c1 [Example 411, 3-Methyl-1H-pyrazole-4-carboxylic acid [5-(7-isopropyl-7H-pyrrolo[2,3-d]pyrimidine-5-carbonyl)-pyridin-3-yl]-amide] | 9800
Cc1cncnc1C(=O)Nc1cncc(C(=O)c2cn(C(C)C)c3ncncc23)c1 [Example 413, 5-Methyl-pyrimidine-4-carboxylic acid [5-(7-isopropyl-7H-pyrrolo[2,3-d]pyrimidine-5-carbonyl)-pyridin-3-yl]-amide] | 9800
CC(C)n1cc(C(=O)c2cncc(NC(=O)c3cnc4ccnn4c3)c2)c2cncnc21 [Example 415, Pyrazolo[1,5-a]pyrimidine-6-carboxylic acid [5-(7-isopropyl-7H-pyrrolo[2,3-d]pyrimidine-5-carbonyl)-pyridin-3-yl]-amide] | 2590
CC(C)n1cc(C(=O)c2cncc(NC(=O)c3cncnc3N)c2)c2cncnc21 [Example 420, 4-Amino-pyrimidine-5-carboxylic acid [5-(7-isopropyl-7H-pyrrolo[2,3-d]pyrimidine-5-carbonyl)-pyridin-3-yl]-amide] | 9800
CC(C)n1cc(C(=O)c2cncc(NC(=O)c3c[nH]c4cnccc34)c2)c2cncnc21 [Example 421, 1H-Pyrrolo[2,3-c]pyridine-3-carboxylic acid [5-(7-isopropyl-7H-pyrrolo[2,3-d]pyrimidine-5-carbonyl)-pyridin-3-yl]amide] | 1730
Cc1cc(C(=O)Nc2cncc(C(=O)c3cn(C(C)C)c4ncncc34)c2)ccn1 [Example 422, N-[5-(7-Isopropyl-7H-pyrrolo[2,3-d]pyrimidine-5-carbonyl)-pyridin-3-yl]-2-methyl-isonicotinamide] | 451
CC(C)n1cc(C(=O)c2cncc(NC(=O)c3ccc4nccn4c3)c2)c2cncnc21 [Example 423, Imidazo[1,2-a]pyridine-6-carboxylicacid [5-(7-isopropyl-7H-pyrrolo[2,3-d]pyrimidine-5-carbonyl)-pyridin-3-yl]amide] | 1330
CC(C)n1cc(C(=O)c2cncc(NC(=O)c3nc[nH]n3)c2)c2cncnc21 [Example 424, 1H-1,2,4-Triazole-3-carboxylic acid[5-(7-isopropyl-7H-pyrrolo[2,3-d]pyrimidine-5-carbonyl)-pyridin-3-yl]-amide] | 4310
COc1ccc(C(=O)Nc2cncc(C(=O)c3cn(C(C)C)c4ncncc34)c2)nc1 [Example 425, 5-Methoxy-pyridine-2-carboxylic acid [5-(7-isopropyl-7H-pyrrolo[2,3-d]pyrimidine-5-carbonyl)-pyridin-3-yl]-amide] | 796
CC(C)n1cc(C(=O)c2cncc(NC(=O)c3cc4ncccn4n3)c2)c2cncnc21 [Example 428, Pyrazolo[1,5-a]pyrimidine-2-carboxylic acid [5-(7-isopropyl-7H-pyrrolo[2,3-d]pyrimidine-5-carbonyl)-pyridin-3-yl]amide] | 960
CC(C)n1cc(C(=O)c2cncc(NC(=O)c3ccccn3)c2)c2cncnc21 [Example 429, Pyridine-2-carboxylic acid [5-(7-isopropyl-7H-pyrrolo[2,3-d]pyrimidine-5-carbonyl)-pyridin-3-yl]-amide] | 2740
CC(C)n1cc(C(=O)c2cncc(NC(=O)c3cncc(Cl)c3)c2)c2cncnc21 [Example 430, 5-Chloro-N-[5-(7-isopropyl-7H-pyrrolo[2,3-d]pyrimidine-5-carbonyl)-pyridin-3-yl]-nicotinamide] | 297
CC(C)n1cc(C(=O)c2cncc(NC(=O)c3cc4occc4[nH]3)c2)c2cncnc21 [Example 431, 4H-Furo[3,2-b]pyrrole-5-carboxylic acid [5-(7-isopropyl-7H-pyrrolo1[2,3-d]pyrimidine-5-carbonyl)-pyridin-3-yl]-amide] | 235
CC(C)n1cc(C(=O)c2cncc(NC(=O)c3ccn4ccnc4c3)c2)c2cncnc21 [Example 432, Imidazo[1,2-a]pyridine-7-carboxylicacid [5-(7-isopropyl-7H-pyrrolo[2,3-d]pyrimidine-5-carbonyl)-pyridin-3-yl]amide] | 2790
COc1nc(C(=O)Nc2cncc(C(=O)c3cn(C(C)C)c4ncncc34)c2)cn2ccnc12 [Example 435, 8-Methoxy-imidazo[1,2-a]pyrazine-6-carboxylic acid [5-(7-isopropyl-7H-pyrrolo[2,3-d]pyrimidine-5-carbonyl)-pyridin-3-yl]amide] | 5490

Further molecules by falling IC50, results first:

IC50 [nM] | SMILES
246 | CCn1cc(C(=O)Nc2cncc(C(=O)c3cn(C(C)C)c4ncncc34)c2)cn1 [Example 433, 1-Ethyl-1H-pyrazole-4-carboxylic acid [5-(7-isopropyl-7H-pyrrolo[2,3-d]pyrimidine-5-carbonyl)-pyridin-3-yl]-amide]
228 | CC(C)n1cc(C(=O)c2cncc(NC(=O)c3cnnc4ccccc34)c2)c2cncnc21 [Example 426, Cinnoline-4-carboxylic acid [5-(7-isopropyl-7H-pyrrolo[2,3-d]pyrimidine-5-carbonyl)-pyridin-3-yl]-amide]
205 | CC(C)n1cc(C(=O)c2cncc(NC(=O)c3cnc4[nH]ccc4c3)c2)c2cncnc21 [Example 436, 1H-Pyrrolo[2,3-b]pyridine-5-carboxylic acid [5-(7-isopropyl-7H-pyrrolo[2,3-d]pyrimidine-5-carbonyl)-pyridin-3-yl]amide]
158 | CC(C)n1cc(C(=O)c2cncc(NC(=O)c3cnc4ccsc4c3)c2)c2cncnc21 [Example 414, Thieno[3,2-b]pyridine-6-carboxylic acid [5-(7-isopropyl-7H-pyrrolo[2,3-d]pyrimidine-5-carbonyl)-pyridin-3-yl]-amide]
107 | CCCc1cc(C(=O)Nc2cncc(C(=O)c3cn(C(C)C)c4ncncc34)c2)n(C)n1 [Example 437, 2-Methyl-5-propyl-2H-pyrazole-3-carboxylic acid [5-(7-isopropyl-7H-pyrrolo[2,3-d]pyrimidine-5-carbonyl)-pyridin-3-yl]amide]
99.9 | CC(C)n1cnc(C(=O)Nc2cncc(C(=O)c3cn(C(C)C)c4ncncc34)c2)c1 [Example 434, 1-Isopropyl-1H-imidazole-4-carboxylic acid [5-(7-isopropyl-7H-pyrrolo[2,3-d]pyrimidine-5-carbonyl)-pyridin-3-yl]-amide]
93.4 | CC(C)n1cc(C(=O)c2cncc(NC(=O)c3ccn4ncnc4c3)c2)c2cncnc21 [Example 427, [1,2,4]Triazolo[1,5-a]pyridine-7-carboxylic acid [5-(7-isopropyl-7H-pyrrolo[2,3-d]pyrimidine-5-carbonyl)-pyridin-3-yl]amide]
71.2 | CC(C)n1cc(C(=O)c2cncc(NC(=O)c3ncc4ccccn34)c2)c2cncnc21 [Example 417, Imidazo[1,5-a]pyridine-3-carboxylicacid [5-(7-isopropyl-7H-pyrrolo[2,3-d]pyrimidine-5-carbonyl)-pyridin-3-yl]-amide]
70.4 | COc1ccnc(C(=O)Nc2cncc(C(=O)c3cn(C(C)C)c4ncncc34)c2)c1 [Example 409, 4-Methoxy-pyridine-2-carboxylic acid [5-(7-isopropyl-7H-pyrrolo[2,3-d]pyrimidine-5-carbonyl)-pyridin-3-yl]-amide]
52 | CC(C)n1cc(C(=O)c2cncc(NC(=O)c3noc4c3CCCC4)c2)c2cncnc21 [Example 416, 4,5,6,7-Tetrahydro-1,2-benzisoxazole-3-carboxylic acid [5-(7-isopropyl-7H-pyrrolo[2,3-d]pyrimidine-5-carbonyl)-pyridin-3-yl]-amide]
40.2 | CC(C)n1cc(C(=O)c2cncc(NC(=O)c3ccc4cc[nH]c4n3)c2)c2cncnc21 [Example 418, 1H-Pyrrolo[2,3-b]pyridine-6-carboxylic acid [5-(7-isopropyl-7H-pyrrolo[2,3-d]pyrimidine-5-carbonyl)-pyridin-3-yl]-amide]
15.1 | CC(C)n1cc(C(=O)c2cncc(NC(=O)c3n[nH]c4c3CCC4)c2)c2cncnc21 [Example 419, 1,4,5,6-Tetrahydro-cyclopentapyrazole-3-carboxylic acid [5-(7-isopropyl-7H-pyrrolo[2,3-d]pyrimidine-5-carbonyl)-pyridin-3-yl]-amide]
5.18 | Cc1cnc2[nH]cc(C(=O)Nc3cncc(C(=O)c4cn(C(C)C)c5ncncc45)c3)c2c1 [Example 412, 5-Methyl-1H-pyrrolo[2,3-b]pyridine-3-carboxylic acid [5-(7-isopropyl-7H-pyrrolo[2,3-d]pyrimidine-5-carbonyl)-pyridin-3-yl]-amide]
